A short description of data set [1]: The drug is tested on Z-025 corresponding to rabbit gut metagenome with ENA study accession number: PRJEB37062 and ENA sample accession number: ERS12561824 for biotransformation under anaerobic condition. The drug concentrations were measured over 9 timepoints collected between 0 and 24 hours of incubation by liquid-chromatography-coupled mass spectrometry (LC–MS). The following applies: 2 µM.

Data set [2] can be described thus: The drug is tested on Z-024 corresponding to pig gut metagenome with ENA study accession number: PRJEB37062 and ENA sample accession number: ERS12561823 for biotransformation under anaerobic condition. The drug concentrations were measured over 9 timepoints collected between 0 and 24 hours of incubation by liquid-chromatography-coupled mass spectrometry (LC–MS). The following applies: 2 µM.

Data set [3] is described as follows: The drug is tested on Z-022 corresponding to mouse gut metagenome with ENA study accession number: PRJEB37062 and ENA sample accession number: ERS12561821 for biotransformation under anaerobic condition. The drug concentrations were measured over 9 timepoints collected between 0 and 24 hours of incubation by liquid-chromatography-coupled mass spectrometry (LC–MS). The following applies: 2 µM.

Data set [4] is described as follows: The drug is tested on Z-021 corresponding to metagenome with ENA study accession number: PRJEB37062 and ENA sample accession number: ERS12561820 for biotransformation under anaerobic condition. The drug concentrations were measured over 9 timepoints collected between 0 and 24 hours of incubation by liquid-chromatography-coupled mass spectrometry (LC–MS). Conditions: 2 µM.

A short description of data set [5]: The drug is tested on Z-003 corresponding to pig gut metagenome with ENA study accession number: PRJEB37062 and ENA sample accession number: ERS12561803 for biotransformation under anaerobic condition. The drug concentrations were measured over 9 timepoints collected between 0 and 24 hours of incubation by liquid-chromatography-coupled mass spectrometry (LC–MS). The following applies: 2 µM.

Data set [6] is described as follows: The drug is tested on WLS-350 corresponding to human gut metagenome with ENA study accession number: PRJEB37062 and ENA sample accession number: ERS12561789 for biotransformation under anaerobic condition. The drug concentrations were measured over 9 timepoints collected between 0 and 24 hours of incubation by liquid-chromatography-coupled mass spectrometry (LC–MS). Conditions: 2 µM.

A short description of data set [7]: The drug is tested on WLS-240 corresponding to human gut metagenome with ENA study accession number: PRJEB37062 and ENA sample accession number: ERS12561773 for biotransformation under anaerobic condition. The drug concentrations were measured over 9 timepoints collected between 0 and 24 hours of incubation by liquid-chromatography-coupled mass spectrometry (LC–MS). The following applies: 2 µM.

A short description of data set [8]: The drug is tested on WLS-086 corresponding to human gut metagenome with ENA study accession number: PRJEB37062 and ENA sample accession number: ERS12561752 for biotransformation under anaerobic condition. The drug concentrations were measured over 9 timepoints collected between 0 and 24 hours of incubation by liquid-chromatography-coupled mass spectrometry (LC–MS). The following applies: 2 µM.

The nature of data set [9]: The drug is tested on WLS-077 corresponding to human gut metagenome with ENA study accession number: PRJEB37062 and ENA sample accession number: ERS12561750 for biotransformation under anaerobic condition. The drug concentrations were measured over 9 timepoints collected between 0 and 24 hours of incubation by liquid-chromatography-coupled mass spectrometry (LC–MS). Conditions: 2 µM.

The nature of data set [10]: The drug is tested on WLS-069 corresponding to human gut metagenome with ENA study accession number: PRJEB37062 and ENA sample accession number: ERS12561748 for biotransformation under anaerobic condition. The drug concentrations were measured over 9 timepoints collected between 0 and 24 hours of incubation by liquid-chromatography-coupled mass spectrometry (LC–MS). The following applies: 2 µM.

Data set [11] in a line: The drug is tested on WLS-039 corresponding to human gut metagenome with ENA study accession number: PRJEB37062 and ENA sample accession number: ERS12561746 for biotransformation under anaerobic condition. The drug concentrations were measured over 9 timepoints collected between 0 and 24 hours of incubation by liquid-chromatography-coupled mass spectrometry (LC–MS). The following applies: 2 µM.

Data set [12] can be described thus: The drug is tested on WLS-038 corresponding to human gut metagenome with ENA study accession number: PRJEB37062 and ENA sample accession number: ERS12561745 for biotransformation under anaerobic condition. The drug concentrations were measured over 9 timepoints collected between 0 and 24 hours of incubation by liquid-chromatography-coupled mass spectrometry (LC–MS). The following applies: 2 µM.

The conditions of data set [13]: human gut metagenome, 24 h, 2 µM.
For data set [14] the following is noted: human gut metagenome, 24 h, 2 µM. The source holds these as a separate data set.
For data set [15] the following is noted: human gut metagenome, 24 h, 2 µM. The source holds these as a separate data set.
For data set [16] the following is noted: human gut metagenome, 24 h, 2 µM. The source holds these as a separate data set.
For data set [17] the following is noted: human gut metagenome, 24 h, 2 µM. This is another data set of the same source.
The conditions of data set [18]: human gut metagenome, 24 h, 2 µM. This is another data set of the same source.
For data set [19] the following is noted: human gut metagenome, 24 h, 2 µM. The source holds these as a separate data set.
For data set [20] the following is noted: human gut metagenome, 24 h, 2 µM. This is another data set of the same source.
Also: call rule not given here.

Take `CC(C)OC(=O)C(C)(C)Oc1ccc(C(=O)c2ccc(Cl)cc2)cc1` [FENOFIBRATE]: the “Bacterial Biotransformation” value in data set [1] was “Compound metabolized”; in data set [2], “Compound NOT metabolized”; in data set [3], “Compound NOT metabolized”; in data set [4], “Compound NOT metabolized”; in [5], “Compound metabolized”; in data set [6] it was “Compound NOT metabolized”. The “Bacterial Biotransformation” value was “Compound NOT metabolized” in data set [7]; “Compound metabolized” in data set [8]; “Compound NOT metabolized” in data set [9]; “Compound NOT metabolized” in data set [10]; “Compound NOT metabolized” in data set [11]; “Compound NOT metabolized” in data set [12]. The “Bacterial Biotransformation” value in [13] is reported as “Compound metabolized”; in data set [14] it was “Compound metabolized”; in data set [15], “Compound NOT metabolized”; in [16], “Compound NOT metabolized”; in [17] it was “Compound metabolized”; in data set [18] it was “Compound metabolized”. The “Bacterial Biotransformation” value in data set [19] and in data set [20] was “Compound metabolized” throughout.

For `O=C1NCC2(CCN(CCc3ccccc3)CC2)O1` [FENSPIRIDE], the “Bacterial Biotransformation” value in data set [1] is on record as “Compound NOT metabolized”; in [2], “Compound NOT metabolized”; in data set [3], “Compound metabolized”; in data set [4] it was “Compound NOT metabolized”; in [5], “Compound NOT metabolized”; in [6] it was “Compound NOT metabolized”. The “Bacterial Biotransformation” value is given as “Compound NOT metabolized” in [7]; “Compound metabolized” in data set [8]; “Compound NOT metabolized” in data set [9]; “Compound NOT metabolized” in data set [10]; “Compound NOT metabolized” in data set [11]; “Compound NOT metabolized” in [12]. The “Bacterial Biotransformation” value in [13] is listed as “Compound NOT metabolized”; in [14], “Compound NOT metabolized”; in data set [15], “Compound NOT metabolized”; in [16] it was “Compound NOT metabolized”; in data set [17] it was “Compound metabolized”; in [18], “Compound NOT metabolized”. The “Bacterial Biotransformation” value in data set [19] is listed as “Compound NOT metabolized”; in [20] it was “Compound metabolized”.

As for `OC(Cn1cncn1)(Cn1cncn1)c1ccc(F)cc1F` [FLUCONAZOLE], the “Bacterial Biotransformation” value in data set [1] is “Compound NOT metabolized”; in [2] it was “Compound metabolized”; in data set [3] it was “Compound metabolized”; in [4], “Compound metabolized”; in [5] it was “Compound metabolized”; in data set [6], “Compound metabolized”. In addition, the “Bacterial Biotransformation” value in data set [7] was “Compound metabolized”; in [8], “Compound metabolized”; in data set [9], “Compound NOT metabolized”; in [10] it was “Compound metabolized”; in [11], “Compound NOT metabolized”; in [12], “Compound NOT metabolized”. Moreover, the “Bacterial Biotransformation” value in [13] is listed as “Compound NOT metabolized”; in [14] it was “Compound NOT metabolized”; in [15], “Compound NOT metabolized”; in data set [16], “Compound metabolized”; in [17], “Compound metabolized”; in data set [18], “Compound metabolized”. Moreover, the “Bacterial Biotransformation” value in [19] and in data set [20] was “Compound metabolized” in each case.

Turning to `CNCCC(Oc1ccc(C(F)(F)F)cc1)c1ccccc1` (stereo not given) [FLUOXETINE], the “Bacterial Biotransformation” value in data set [1], in data set [2], in data set [3], in data set [4], in [5] and in [6] was “Compound NOT metabolized” each time. For the same molecule, the “Bacterial Biotransformation” value is “Compound metabolized” in [7]; “Compound NOT metabolized” in [8]; “Compound NOT metabolized” in data set [9]; “Compound NOT metabolized” in data set [10]; “Compound NOT metabolized” in data set [11]; “Compound NOT metabolized” in [12]. Also, the “Bacterial Biotransformation” value in [13] is on record as “Compound NOT metabolized”; in data set [14] it was “Compound metabolized”; in data set [15], “Compound NOT metabolized”; in data set [16] it was “Compound NOT metabolized”; in data set [17], “Compound NOT metabolized”; in data set [18], “Compound NOT metabolized”. In addition, the “Bacterial Biotransformation” value in data set [19] and in data set [20] was “Compound NOT metabolized” in each case.

Turning to `O=C(CCCN1CCC(O)(c2ccc(Cl)cc2)CC1)c1ccc(F)cc1` [HALOPERIDOL], the “Bacterial Biotransformation” value is reported as “Compound NOT metabolized” in data set [1]; “Compound NOT metabolized” in data set [2]; “Compound NOT metabolized” in data set [3]; “Compound NOT metabolized” in [4]; “Compound metabolized” in data set [5]; “Compound NOT metabolized” in [6]. Also, the “Bacterial Biotransformation” value in data set [7] was “Compound metabolized”; in [8], “Compound metabolized”; in data set [9], “Compound NOT metabolized”; in data set [10], “Compound metabolized”; in data set [11], “Compound metabolized”; in data set [12], “Compound NOT metabolized”. The “Bacterial Biotransformation” value in data set [13] was “Compound NOT metabolized”; in data set [14], “Compound NOT metabolized”; in data set [15], “Compound NOT metabolized”; in [16] it was “Compound metabolized”; in data set [17], “Compound NOT metabolized”; in data set [18] it was “Compound metabolized”. Also, the “Bacterial Biotransformation” value in [19] and in [20] was “Compound metabolized” throughout.

(Values after ChEMBL document CHEMBL5724914, “Linking interpersonal differences in gut microbiota composition and drug biotransformation activity” (2024).)
